Tests used:
Ps. aeruginosa = assay: MIC by Steers' agar dilution method; settings: Pseudomonas aeruginosa
Shig. dysenteriae = assay: MIC by Steers' agar dilution method; settings: Shigella dysenteriae, MHA
S. typhimurium = assay: MIC by Steers' agar dilution method; settings: Salmonella enterica
St. faecalis = assay: MIC by Steers' agar dilution method; settings: Enterococcus faecalis
Sal. enteritidis = assay: MIC by Steers' agar dilution method; settings: Salmonella enterica
bacteria of Table 4 = assay: Media effect on MIC (Nutrient, Mueller-Hinton, Heart-Infusion agar); assay type: cell-based; settings: NA, MHA, HIA
B. anthracis = assay: microbe, parasite or virus in culture; assay type: cell-based; settings: Bacillus anthracis
P. vulgaris A9436 (Pv-1) = assay: Standard experimental infection (single sc treatment); settings: for No. of survivors/No. tested: Run C-808, single sc
Serr. marcescens = assay: MIC by Steers' agar dilution method; settings: Serratia marcescens
S. paratyphi = assay: MIC by Steers' agar dilution method; settings: Salmonella enterica
S. aureus Smith = assay: Standard experimental infection in mice; assay type: in vivo; settings: Table 6
Pr. rettgeri = assay: MIC by Steers' agar dilution method; settings: Providencia rettgeri
S. aureus = assay: MIC by Steers' agar dilution method; assay type: cell-based; settings: Staphylococcus aureus
Shig. flexneri = assay: MIC by Steers' agar dilution method; assay type: cell-based; settings: Shigella flexneri, MHA
Pr. vulgaris = assay: MIC by Steers' agar dilution method; settings: Proteus vulgaris
[1] = strain not given (1st of 2), MHA, Example 10
[2] = strain not named (2nd of 2), MHA, Example 10

Cn1nnnc1SCC1=C(C(=O)O)N2C(=O)[C@@H](NC(=O)[C@H](O)c3ccccc3)[C@H]2SC1 [Cefamandole, cefamandole, reference compound]
36 mg/kg: ED50 (P. vulgaris A9436 (Pv-1); Proteus vulgaris, in Mus musculus, sc, read-out: PD50)
1.6 µg/mL: MIC (S. aureus; Sa-58 A15033, MHA, Table 2) | MIC (Pr. vulgaris; Pv-2 A9526, MHA, Table 3)
6.3 µg/mL: MIC (S. aureus; Sa-44 A15097, NA, Table 4) | MIC (S. aureus; Sa-59 A15096, MHA, Table 2) | MIC (S. aureus; Sa-61 A20605, MHA, Table 2) | MIC (S. aureus; Sa-64 A20608, MHA, Table 2) | MIC (S. aureus; Sa-65 A20609, MHA, Table 2) | MIC (S. aureus; Sa-66 A20610, MHA, Table 2) | MIC (S. aureus; Sa-67 A20611, MHA, Table 2) | MIC (S. aureus; Sa-69 A20613, MHA, Table 2) | MIC (Shig. flexneri; A9684, Table 1) | MIC (Shig. flexneri; Example 10) | MIC (Pr. vulgaris; A9699, MHA, Table 1) | MIC (Pr. vulgaris; Pv-3 A9699 (β-lactamase), NA, Table 4)
little media effect: Media effect on MIC (bacteria of Table 4)
3.1 µg/mL: MIC (S. aureus; Sa-44 A15097, HIA, Table 4) | MIC (S. aureus; Sa-44 A15097, MHA, Table 4) | MIC (S. aureus; Sa-57 A9748, MHA, Table 2) | MIC (S. aureus; Sa-60 A20604, MHA, Table 2) | MIC (Shig. flexneri; Sr-1 A9684, Table 3)
0.0125 µg/mL: MIC (S. aureus; Sa-33 Terajima, MHA, Table 2)
100 µg/mL: MIC (St. faecalis; Sf-3 S. faecalis A9536, HIA, Table 4) | MIC (St. faecalis; Sf-3 S. faecalis A9536, MHA, Table 4) | MIC (Serr. marcescens; A20019, MHA, Table 1) | MIC (Serr. marcescens; MHA, Example 10) | MIC (Serr. marcescens; Sm-1 A20019 (β-lactamase), MHA, Table 4) | MIC (Serr. marcescens; Sm-3 A20336, MHA, Table 4) | MIC (Pr. vulgaris; Pv-3 A9699 (β-lactamase), HIA, Table 4)
50 µg/mL: MIC (St. faecalis) | MIC (Serr. marcescens; Sm-1 A20019 (β-lactamase), HIA, Table 4) | MIC (Serr. marcescens; Sm-1 A20019 (β-lactamase), NA, Table 4) | MIC (Serr. marcescens; Sm-3 A20336, HIA, Table 4) | MIC (Serr. marcescens; Sm-3 A20336, NA, Table 4) | MIC (Serr. marcescens; Sm-9 A20333, MHA, Table 3) | MIC (Serr. marcescens; Sm-10 A20334, MHA, Table 3) | MIC (Serr. marcescens; Sm-12 A20461, MHA, Table 3) | MIC (Pr. vulgaris; Pv-3 A9699 (β-lactamase), MHA, Table 4) | MIC (Pr. vulgaris; Pv-3 A9699, MHA, Table 3) | MIC (Pr. vulgaris; [2])
25 µg/mL: MIC (Serr. marcescens; Sm-1 A20019, MHA, Table 3) | MIC (Serr. marcescens; Sm-11 A20459, MHA, Table 3) | MIC (S. aureus; Sa-44 A15097, MHA, Table 2)
0.05 µg/mL: MIC (Sal. enteritidis; MHA, Example 10) | MIC (S. aureus; A9497, MHA, Table 1) | MIC (S. aureus; Smith A9537, MHA, Table 1)
0.1 µg/mL: MIC (Shig. dysenteriae; Example 10) | MIC (Shig. dysenteriae; Table 1) | MIC (Sal. enteritidis; A9531, MHA, Table 1) | MIC (Pr. rettgeri; Pr-1 A15167, HIA, Table 4) | MIC (Pr. rettgeri; Pr-2 A9637, MHA, Table 3) | MIC (Pr. rettgeri; Pr-4 A20645, MHA, Table 3) | MIC (S. aureus; BX-1633 A9606, MHA, Table 1) | MIC (S. aureus; Sa-12 A9497, MHA, Table 2) | MIC (S. aureus; strain not named, MHA, Example 10)
0.4 µg/mL: MIC (B. anthracis; Ba-3 A9504, MHA, Table 4) | MIC (B. anthracis; Ba-3 A9504, NA, Table 4) | MIC (B. anthracis; MHA, Example 10) | MIC (Pr. rettgeri; MHA, Example 10) | MIC (S. aureus; BX-1633, MHA, Example 10) | MIC (S. aureus; Sa-10 A20239, MHA, Table 2) | MIC (S. aureus; Sa-11 BX-1633 A9606 (β-lactamase), HIA, Table 4) | MIC (S. aureus; Sa-11 BX-1633 A9606 (β-lactamase), MHA, Table 4) | MIC (S. aureus; Sa-11 BX-1633 A9606 (β-lactamase), NA, Table 4) | MIC (S. aureus; Sa-35 A15094, MHA, Table 2) | MIC (S. aureus; Sa-36 Russell, MHA, Table 2) | MIC (S. aureus; Sa-39 A9578, MHA, Table 2) | MIC (S. aureus; Sa-40 A9601, MHA, Table 2) | MIC (S. aureus; Sa-68 A20612, MHA, Table 2) | MIC (Pr. vulgaris; A9436, MHA, Table 1) | MIC (Pr. vulgaris; Pv-1 A9436, HIA, Table 4) | MIC (Pr. vulgaris; Pv-1 A9436, MHA, Table 4)
0.6 mg/kg: ED50 (S. aureus Smith; Staphylococcus aureus, read-out: PD50)
0.8 µg/mL: MIC (Pr. rettgeri; Pr-5 A20915, MHA, Table 3) | MIC (S. aureus; Sa-29 No. 193, MHA, Table 2) | MIC (S. aureus; Sa-37 A9524, MHA, Table 2) | MIC (S. aureus; Sa-56 A9630, MHA, Table 2) | MIC (S. aureus; Sa-62 A20606, MHA, Table 2) | MIC (Pr. vulgaris; Pv-1 A9436, MHA, Table 3) | MIC (Pr. vulgaris; Pv-6 A9716, MHA, Table 3)
> 100 µg/mL: MIC (Ps. aeruginosa; A9843, MHA, Table 1) | MIC (Ps. aeruginosa; A9930, MHA, Table 1) | MIC (Ps. aeruginosa; Pa-3 A9930, HIA, Table 4) | MIC (Ps. aeruginosa; Pa-3 A9930, MHA, Table 4) | MIC (Ps. aeruginosa; Pa-3 A9930, NA, Table 4) | MIC (Ps. aeruginosa; [1]) | MIC (Ps. aeruginosa; [2]) | MIC (St. faecalis; MHA, Example 10) | MIC (St. faecalis; Sf-3 S. faecalis A9536, NA, Table 4) | MIC (Pr. vulgaris; Pv-5 A9539, MHA, Table 3) | MIC (Pr. vulgaris; Pv-7 A21240, MHA, Table 3)
5/5: No. of survivors/No. tested (S. aureus Smith; 1.6 mg./kg.) | No. of survivors/No. tested (S. aureus Smith; 6.3 mg./kg.) | No. of survivors/No. tested (S. aureus Smith; 25 mg./kg.)
0/5: No. of survivors/No. tested (P. vulgaris A9436 (Pv-1); 0.8 mg./kg.) | No. of survivors/No. tested (P. vulgaris A9436 (Pv-1); 3.1 mg./kg.)
3/5: No. of survivors/No. tested (P. vulgaris A9436 (Pv-1); 50 mg./kg.)
0.2 µg/mL: MIC (Shig. dysenteriae; Sd-1, Table 3) | MIC (S. typhimurium) | MIC (Sal. enteritidis; Se-1 A9531, MHA, Table 3) | MIC (B. anthracis; Ba-3 A9504, HIA, Table 4) | MIC (S. paratyphi) | MIC (Pr. rettgeri; A15167, MHA, Table 1) | MIC (Pr. rettgeri; Pr-1 A15167, MHA, Table 3) | MIC (Pr. rettgeri; Pr-1 A15167, MHA, Table 4) | MIC (Pr. rettgeri; Pr-1 A15167, NA, Table 4) | MIC (Pr. rettgeri; Pr-6 A20920, MHA, Table 3) | MIC (S. aureus; Sa-2 Smith A9537, HIA, Table 4) | MIC (S. aureus; Sa-2 Smith A9537, MHA, Table 2) | MIC (S. aureus; Sa-2 Smith A9537, MHA, Table 4) | MIC (S. aureus; Sa-2 Smith A9537, NA, Table 4) | MIC (S. aureus; Sa-3 No. 193, MHA, Table 2) | MIC (S. aureus; Sa-8, MHA, Table 2) | MIC (S. aureus; Sa-9 No. 193, MHA, Table 2) | MIC (S. aureus; Sa-11 BX-1633 A9606, MHA, Table 2) | MIC (S. aureus; Sa-34 A15092, MHA, Table 2) | MIC (S. aureus; Sa-38 A9534, MHA, Table 2) | MIC (S. aureus; Sa-41 A9602, MHA, Table 2) | MIC (S. aureus; Smith, MHA, Example 10) | MIC (Pr. vulgaris; ATCC9920, Pv-4 ATCC 9920, MHA, Table 3) | MIC (Pr. vulgaris; Pv-1 A9436, NA, Table 4) | MIC (Pr. vulgaris; [1])
1/5: No. of survivors/No. tested (P. vulgaris A9436 (Pv-1); 12.5 mg./kg.) | No. of survivors/No. tested (S. aureus Smith; 0.4 mg./kg.)
12.5 µg/mL: MIC (Serr. marcescens; Sm-2 A20335, MHA, Table 3) | MIC (Serr. marcescens; Sm-3 A20336, MHA, Table 3) | MIC (Serr. marcescens; Sm-4 A20442, MHA, Table 3) | MIC (Serr. marcescens; Sm-5 A20222, MHA, Table 3) | MIC (Serr. marcescens; Sm-6 A20460, MHA, Table 3) | MIC (S. aureus; Sa-63 A20607, MHA, Table 2)

— patent US4112228A, “7-(D-α-Hydroxy-2-arylacetamido)-3-(2-carboxyalkyl-2,3-dihydro-s-tri azolo-[4,3-b]pyridazin-3-on-6-ylthiomethyl)-3-cephem-4-carboxylic acids and derivatives” (priority 1977, dated 1978)
